# Experimental data: patent US20150197802A1 (priority 2012, published 2015)
# Where two headings read alike, the source gives them in different places.
# How the values were obtained:
# [1] = test system: renal proximal tubule; details: cited from earlier work; for classification of the test compound with regard to nephrotoxicity: group of the test compound; for nephrotoxic effects in humans: clinical, clinically relevant concentrations
# [2] = test system: HPTC; type: cell-based, human
# [3] = test system: human primary renal proximal tubular cells (HPTC); assay: IL-6 and IL-8 expression (qPCR) in renal proximal tubular cells after 16 h exposure
compound,measurement,setting,value
OCCO [ethylene glycol],classification of the test compound with regard to nephrotoxicity,[1],non-PT-specific nephrotoxin
gentamicin,"IL-8 expression, up-regulation compared with the other marker genes tested",[2],highest levels of up-regulation
C[C@H](Cn1cnc2c(N)ncnc21)OCP(=O)(O)O [tenofovir],nephrotoxic effects in humans,[1],injures the renal proximal tubules
N.N.[Cl][Pt][Cl] [cisplatin],cell death,"[3]; HPTC 1, highest concentration tested, dose-response FIG. 2",massive cell death
[Cl][Cu][Cl] [CuCl2],classification of the test compound with regard to nephrotoxicity,[1],PT-specific nephrotoxin
C[C@@H]1C[C@H]2[C@@H]3CCC4=CC(=O)C=C[C@]4(C)[C@@]3(F)[C@@H](O)C[C@]2(C)[C@@]1(O)C(=O)CO [dexamethasone],classification of the test compound with regard to nephrotoxicity,[1],not nephrotoxic
CN(C)[C@@H]1C(O)=C(C(N)=O)C(=O)[C@@]2(O)C(O)=C3C(=O)c4c(O)cccc4[C@@](C)(O)[C@H]3C[C@@H]12 [tetracycline],test result in the IL-6/IL-8 expression method (positive = predicted PT-specific nephrotoxin),"[3]; 1 μg/ml to 1000 μg/ml, 16 h",positive
same,nephrotoxic effects in humans,[1],"usually no obvious nephrotoxic effects, but can induce AKI and ESRD in patients with pre-existing kidney disease"
[Cl][Cd][Cl] [CdCl2],"IL-8 expression, up-regulation compared with the other marker genes tested","[2]; two batches of HPTC, high doses (2.5 mg/ml gentamicin, 10 mg/ml CdCl2), FIG. 1",highest levels of up-regulation
